Patent US9399649B2, “Compounds for treating spinal muscular atrophy” (PTC Therapeutics Inc., priority 2012, dated 2016)

Experiments:
[1] = test system: full length and Δ7 SMN2 mRNA; experiment: Endogenous SMN2 mRNA end-point semi-quantitative RT-PCR splicing assay in cultured cells; type: cell-based, human; details: Type 1 SMA patient fibroblasts (GM03813), increasing concentrations, 24 hr, FIG. 5
Protocol: The endpoint reverse transcription-PCR splicing assay is used to visualize and quantify the levels of the full length and Δ7 SMN2 mRNA in primary cells and cell lines containing the SMN2 gene treated with a test compound.
GM03813 SMA patient cells (5,000 cells/well) are seeded in 200 μL of cell culture medium (DMEM plus 10% FBS) in 96-well flat-bottom plates and the plate is immediately swirled to ensure proper dispersal of cells, forming an even monolayer of cells. Cells are allowed to attach for at least 4-6 hrs. Test compounds are serially diluted 3.16-fold in 100% DMSO to generate a 7-point concentration curve. A solution of test compound (1 μL, 200× in DMSO) is added to each test well and 1 μL DMSO is added to each control well. The plate is incubated for 24 hrs in a cell culture incubator (37° C., 5% CO2, 100% relative humidity). The cells are then lysed in Cells-To-Ct lysis buffer and the lysate is stored at 80° C.
SMN FL and Δ7 mRNA are identified using the following primers in Table 6. These primers hybridize to a nucleotide sequence in exon 6 (SMN Forward C, SEQ ID NO. 11) (nucleotide 43 to nucleotide 63) and exon 8 (SMN Reverse C, SEQ ID NO. 12) (nucleotide 51 to nucleotide 73) common to human SMN1 and SMN2 mRNA. Since the SMA patient cells used in Example 4 contain only the SMN2 gene, RT-PCR can visualize and quantify only SMN2 full-length and SMN2 Δ7 mRNA.
To synthesize cDNA, 5 μL of lysate, 4 μL of 5× iScript reaction mix, 1 μL of reverse transcriptase, and 10 μL of water are combined and incubated 5 min at 25° C. followed by 30 min at 42° C., followed by 5 min at 85° C. The cDNA solution is stored at −20° C.
To perform endpoint PCR, 5 μL of cDNA, 0.2 μL of 100 μM forward primer, 0.2 μL of 100 μM reverse primer, and 22.5 μL of polymerase super mix are combined in a 96 well semiskirted PCR plate. PCR is carried out at the following temperatures for the indicated time: Step 1: 94° C. (2 min), Step 2: 94° C. (30 sec), Step 3: 55° C. (30 sec), Step 4: 68° C. (1 min), then repeat Steps 2 to 4 for a total of 33 cycles, then hold at 4° C.
10 μL of each PCR sample is electrophoretically separated on a 2% agarose E-gel for 14 minutes stained with double-stranded DNA (dsDNA) staining reagents (e.g., ethidium bromide) and visualized using a gel imager.

[2] = test system: full length and Δ7 SMN2 mRNA; experiment: Endogenous SMN2 mRNA end-point semi-quantitative RT-PCR splicing assay in animal tissues; type: in vivo; details: C/C-allele SMA mice, brain and muscle, oral BID for 10 days, FIG. 7
Protocol: The endpoint reverse transcription-PCR (RT-PCR) splicing assay is used to quantify the levels of the full length and Δ7 SMN2 mRNA in tissues from mice treated with test compound.
C/C-allele SMA mice are treated by oral gavage BID for 10 days with test compounds in 0.5% HPMC and 0.1% Tween-80. Tissue samples are collected and snap frozen for RNA purification.
Tissue samples (20-40 mg) are homogenized in QIAzol Lysis Reagent for 2 minutes at 20 Hz in the TissueLyser II using one stainless steel bead. After addition of chloroform, the homogenate is separated into aqueous and organic phases by centrifugation. RNA partitioned to the upper, aqueous phase is extracted and ethanol is added to provide appropriate binding conditions. The sample is then applied to the RNeasy spin column from the RNeasy Mini Kit, where total RNA binds to the membrane. The RNA is eluted in RNase-free water then stored at −20° C.
SMN2 spliced products are identified using the following amplification primers in Table 8. These primers hybridize to a nucleotide sequence in exon 6 (SMN Forward D, SEQ ID NO. 13) (nucleotide 22 to nucleotide 46) and exon 8 (SMN Reverse C, SEQ ID NO. 12), common to human SMN1 and SMN2 mRNA. […]

Cc1cn2cc(-c3cc4ccc(N5CCN(C)CC5)cc4c(=O)o3)nc2c(C)n1 [Cpd 65, 3-(6,8-dimethylimidazo[1,2-a]pyrazin-2-yl)-7-(4-methylpiperazin-1-yl)-1H-isochromen-1-one]
SMN2 FL mRNA (gel band) [1]: progressively more SMN2 FL mRNA | SMN2 Δ7 mRNA (gel band) [1]: less SMN2 Δ7 mRNA | SMN2 FL mRNA in tissues (gel band) [2]: progressively more SMN2 FL mRNA | SMN2 Δ7 mRNA in tissues (gel band) [2]: less SMN2 Δ7 mRNA

Cc1cn2cc(-c3cc4ccc(N5CCN6CCC[C@H]6C5)cc4c(=O)o3)nc2c(C)n1 [Cpd 69, 3-(6,8-dimethylimidazo[1,2-a]pyrazin-2-yl)-7-[(8aS)-hexahydropyrrolo[1,2-a]pyrazin-2(1H)-yl]-1H-isochromen-1-one]
SMN2 FL mRNA (gel band) [1]: progressively more SMN2 FL mRNA | SMN2 Δ7 mRNA (gel band) [1]: less SMN2 Δ7 mRNA
